Assay results reported in US10435361B2, “Kinase inhibitors” (Topivert Pharma Limited, priority 2013, dated 2019).

What was measured:
Type in all cases: cell-based
PBMCs [1] = assay: IL-2 and IFN gamma release in CD3/CD28 stimulated PBMC cells; conditions: Homo sapiens, assay (c)
How it was run: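 Healthy-donor PBMCs, density-gradient isolated, stimulated on plates pre-coated with anti-CD3 (0.3 μg/mL) and anti-CD28 (3 μg/mL) antibodies, with compound, for 3 days under standard culture conditions. IC50 derived from the dose-response curve.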

PBMCs [2] = assay: LPS-induced TNFα/IL-8 release in PBMC cells; conditions: Homo sapiens, assay (b), read-out: IC50 Values for Inhibition of Cytokine Release PBMCs IL-8
How it was run: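 Healthy-donor PBMCs isolated by density gradient were pretreated with compound for 2 h, then stimulated with 1 ng/mL LPS (E. coli 0111:B4) for 24 h at 37° C., 5% CO2. IL-8 and TNFα in supernatants measured by sandwich ELISA.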

HT29 cells = assay: IL-1β-induced IL-8 release in HT29 cells; conditions: Homo sapiens, HT-29, assay (d), read-out: IC50 Values for Inhibition of Cytokine Release HT29 cells IL-8
Protocol: HT29 cells, a human colon adenocarcinoma cell line, are plated in a 96 well plate (24 hr) and pre-treated with compounds at the desired concentration for 2 hours before addition of 5 ng/mL of IL-1β (Abcam) for 24 hours. Supernatants are harvested for IL-8 quantification by Sandwich ELISA (Duo-set, R&D System). The IC50 is determined from the dose response curve.

PBMCs [3] = assay: Cell mitosis assay in PBMCs; conditions: Homo sapiens, PBMC, 5 μg/mL
How it was run: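 Human PBMCs from healthy donors, density-gradient isolated, stimulated with 2% PHA 48 h, then exposed 20 h to test compounds; demecolcine 0.1 μg/mL added 2 h before harvest. Fixed/permeabilised cells stained for phospho-histone H3 and propidium iodide; mitotic lymphocytes counted by flow cytometry.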

[4] = read-out: IC50 Values for Inhibition of Cytokine Release PBMCs IFNγ
[5] = read-out: IC50 Values for Inhibition of Cytokine Release PBMCs IL-2

Row | IC50 (HT29 cells) [nM] | Compound | IC50 (PBMCs [1]; [4]) [nM] | IC50 (PBMCs [1]; [5]) [nM] | IC50 (PBMCs [2]) [nM] | inhibition at 5 µg/mL (PBMCs [3]) [%]
1 | 8.6 | C#Cc1cc(Nc2nccc(Oc3ccc(NC(=O)Nc4cc(C(C)(C)C)cc(NS(C)(=O)=O)c4OC)c4ccccc34)n2)cc(C(=O)N[C@H](C)CN2CCOCC2)c1 [Example 56, (R)-3-((4-((4-(3-(5-(tert-Butyl)-2-methoxy-3-(methylsulfonamido)phenyl)ureido)-naphthalen-1-yl)oxy)pyrimidin-2-yl)amino)-5-ethynyl-N-(1-morpholinopropan-2-yl)-benzamide] | 12.2 | 35.2 | 1.8 | 46.4
2 | 11.7 | COCCOCCOCCOc1cc(Nc2nccc(Oc3ccc(NC(=O)Nc4cc(C(C)(C)C)cc(NS(=O)(=O)N(C)C)c4OC)c4ccccc34)n2)cc(OC)c1 [Example 74, N-(5-(tert-Butyl)-2-methoxy-3-(3-(4-((2-((3-methoxy-5-(2-(2-(2-methoxyethoxy)ethoxy)-ethoxy)phenyl)amino)pyrimidin-4-yl)oxy)naphthalen-1-yl)ureido)phenyl)dimethylamino-sulfonamide] |  |  | 6.6 | 
3 | 145 | C#Cc1cc(Nc2cc(Oc3ccc(NC(=O)Nc4cc(NS(C)(=O)=O)cc(C(C)(C)C)c4)c4ccccc34)ccn2)cc(C(=O)NCCN2CCOCC2)c1 [Example 65, 3-((4-((4-(3-(3-(tert-Butyl)-5-(methylsulfonamido)phenyl)ureido)naphthalen-1-yl)oxy)-pyridin-2-yl)amino)-5-ethynyl-N-(2-morpholinoethyl)benzamide] | 34.4 | 131 | 4 | 51.1
4 | 31.6 | COCCOCCOCCOc1cc(Nc2nccc(Oc3ccc(NC(=O)Nc4cc(C(C)(C)C)cc(NS(=O)(=O)N5CCCCC5)c4OC)c4ccccc34)n2)cc(OC)c1 [Example 73, N-(5-(tert-Butyl)-2-methoxy-3-(3-(4-((2-((3-methoxy-5-(2-(2-(2-methoxyethoxy)ethoxy)-ethoxy)phenyl)amino)pyrimidin-4-yl)oxy)naphthalen-1-yl)ureido)phenyl)piperidine-1-sulfonamide] |  |  | 19 | 
5 | 1.7 | COCCOCCOCCOc1cc(Nc2nccc(Oc3ccc(NC(=O)Nc4cc(C(C)(C)C)cc(C(=O)NC5COC5)c4OC)c4ccccc34)n2)cc(OC)c1 [Example 51, 5-(tert-Butyl)-2-methoxy-3-(3-(4-((2-((3-methoxy-5-(2-(2-(2-methoxyethoxy)ethoxy)-ethoxy)phenyl)amino)pyrimidin-4-yl)oxy)naphthalen-1-yl)ureido)-N-(oxetan-3-yl)-benzamide] | 1.8 | 46.3 | 1.6 | 44.3
6 | 4.7 | CNC(=O)c1cc(NC(=O)Nc2ccc(Oc3ccnc(Nc4cc(OC)cc(OCCOCCOCCOC)c4)n3)c3ccccc23)cc(C(C)(C)C)c1 [Example 23, 3-(tert-Butyl)-5-(3-(4-((2-((3-methoxy-5-(2-(2-(2-methoxyethoxy)ethoxy)ethoxy)phenyl)-amino)pyrimidin-4-yl)oxy)naphthalen-1-yl)ureido)-N-methylbenzamide] | 9.1 | 17.1 | 2.6 | 25.4
7 | 1150 | COCCOCCOCCOc1cc(Nc2nccc(Oc3ccc(NC(=O)Nc4cc(C(C)(C)C)cc(NS(=O)(=O)C(F)(F)F)c4OC)c4ccccc34)n2)cc(OC)c1 [Example 71, N-(5-(tert-Butyl)-2-methoxy-3-(3-(4-((2-((3-methoxy-5-(2-(2-(2-methoxyethoxy)ethoxy)-ethoxy)phenyl)amino)pyrimidin-4-yl)oxy)naphthalen-1-yl)ureido)phenyl)-1,1,1-trifluoro-methanesulfonamide] |  |  | 114 | 
8 | 5.3 | C#Cc1cc(Nc2cc(Oc3ccc(NC(=O)Nc4cc(C(C)(C)C)cc(C(=O)NC)c4OC)c4ccccc34)ccn2)cc(C(=O)NCCN2CCOCC2)c1 [Example 39, 5-(tert-Butyl)-3-(3-(4-((2-((3-ethynyl-5-((2-morpholinoethyl)carbamoyl)phenyl)amino)-pyridin-4-yl)oxy)naphthalen-1-yl)ureido)-2-methoxy-N-methylbenzamide] | 9.6 | 132 | 2.5 | 34.7
9 | 2.1 | COCCOCCOCCOCCOCCOCCOCCOc1cc(Nc2cc(Oc3ccc(NC(=O)Nc4cc(C(C)(C)C)cc(NS(C)(=O)=O)c4OC)c4ccccc34)ccn2)cc(OC)c1 [Example 45, N-(3-(3-(4-((2-((3-(2,5,8,11,14,17,20-Heptaoxadocosan-22-yloxy)-5-methoxyphenyl)-amino)pyridin-4-yl)oxy)naphthalen-1-yl)ureido)-5-(tert-butyl)-2-methoxyphenyl)methane-sulfonamide] | 7.8 | 182 | 1.4 | 45
10 | 1320 | COCCOCCOCCOc1cc(Nc2nccc(Oc3ccc(NC(=O)Nc4cc(N5CCOCC5)ccc4OC)c4ccccc34)n2)cc(OC)c1 [Example 12, 1-(4-((2-((3-Methoxy-5-(2-(2-(2-methoxyethoxy)ethoxy)ethoxy)phenyl)amino)-pyrimidin-4-yl)oxy)naphthalen-1-yl)-3-(2-methoxy-5-morpholinophenyl)urea] |  |  | 107 | 
11 | 19.2 | COCCOCCOCCOc1cc(Nc2nccc(Oc3ccc(NC(=O)Nc4cc(C(C)(C)C)cc(NS(=O)(=O)C5CCCCC5)c4OC)c4ccccc34)n2)cc(OC)c1 [Example 72, N-(5-(tert-Butyl)-2-methoxy-3-(3-(4-((2-((3-methoxy-5-(2-(2-(2-methoxyethoxy)ethoxy)-ethoxy)phenyl)amino)pyrimidin-4-yl)oxy)naphthalen-1-yl)ureido)phenyl)cyclohexane-sulfonamide] |  |  | 11.8 | 
12 |  | COCCOCCOCCOc1cc(Nc2nccc(Oc3ccc(NC(=O)Nc4cc(C(C)(C)C)cc(C(N)=O)c4OC)c4ccccc34)n2)cc(OC)c1 [Example 20, 5-(tert-Butyl)-2-methoxy-3-(3-(4-((2-((3-methoxy-5-(2-(2-(2-methoxyethoxy)ethoxy)-ethoxy)phenyl)amino)pyrimidin-4-yl)oxy)naphthalen-1-yl)ureido)benzamide] | 9 | 84.3 | 1.1 | 44.3
13 |  | COCCOCCOCCOc1cc(Nc2nccc(Oc3ccc(NC(=O)Nc4cc(C(C)(C)C)cc(-c5nnco5)c4OC)c4ccccc34)n2)cc(OC)c1 [Example 59, 1-(5-(tert-Butyl)-2-methoxy-3-(1,3,4-oxadiazol-2-yl)phenyl)-3-(4-((2-((3-methoxy-5-(2-(2-(2-methoxyethoxy)ethoxy)ethoxy)phenyl)amino)pyrimidin-4-yl)oxy)naphthalen-1-yl)urea] | 7.6 | 58.6 | 3.3 | 55.3
14 | 4.1 | COCCOCCOCCOc1cc(Nc2nccc(Oc3ccc(NC(=O)Nc4cc(C(C)(C)C)cc(-c5cnn[nH]5)c4OC)c4ccccc34)n2)cc(OC)c1 [Example 70, 1-(5-(tert-Butyl)-2-methoxy-3-(1H-1,2,3-triazol-5-yl)phenyl)-3-(4-((2-((3-methoxy-5-(2-(2-(2-methoxyethoxy)ethoxy)ethoxy)phenyl)amino)pyrimidin-4-yl)oxy)naphthalen-1-yl)urea] | 7.4 |  | 4.9 | 
15 |  | COc1cc(Nc2cc(Oc3ccc(NC(=O)Nc4cc(C(C)(C)C)cc(NS(C)(=O)=O)c4OC)c4ccccc34)ccn2)cc(C(=O)NCC(=O)N2CCOCC2)c1 [85(a), 3-[[4-[[4-[[5-tert-Butyl-3-(methanesulfonamido)-2-methoxyphenyl]-carbamoylamino]-1-naphthyl]oxy]-2-pyridyl]amino]-5-methoxy-N-(2-morpholino-2-oxo-ethyl)benzamide] | 11.8 | 53.8 | 0.8 | 46.3
16 | 62.5 | COCCOCCOCCOc1cc(Nc2nccc(Oc3ccc(NC(=O)Nc4cc(C(C)(C)C)cc(NS(C)(=O)=O)c4-c4ccccc4)c4ccccc34)n2)cc(OC)c1 [83(a), N-(4-(tert-butyl)-6-(3-(4-((2-((3-methoxy-5-(2-(2-(2-methoxyethoxy)ethoxy)ethoxy)phenyl)-amino)pyrimidin-4-yl)oxy)naphthalen-1-yl)ureido)-[1,1′-biphenyl]-2-yl)methane-sulfonamide] |  |  | 39 | 
17 |  | C#Cc1cc(Nc2nccc(Oc3ccc(NC(=O)Nc4cc(F)cc(N5CCOCC5)c4)c4ccccc34)n2)cc(C(=O)NCCN2CCOCC2)c1 [Example 2, 3-Ethynyl-5-((4-((4-(3-(3-fluoro-5-morpholinophenyl)ureido)naphthalen-1-yl)oxy)-pyrimidin-2-yl)amino)-N-(2-morpholinoethyl)benzamide] | 35.7 |  | 142 | 4
18 |  | C#Cc1cc(Nc2cc(Oc3ccc(NC(=O)Nc4cc(C(C)(C)C)cc(CO)c4OC)c4ccccc34)ccn2)cc(C(=O)NCCOCCOCCOC)c1 [85(b), 3-[[4-[[4-[[5-tert-Butyl-3-(hydroxymethyl)-2-methoxyphenyl]-carbamoylamino]-1-naphthyl]oxy]-2-pyridyl]amino]-5-ethynyl-N-[2-[2-(2-methoxyethoxy)ethoxy]ethyl]benzamide] | 16.2 | 123 | 1.5 | 25.3
